In patent US9872858B2, “Treatment of degenerations and light-induced damage to the retina” (BIOCODEX, priority 2014, dated 2018):
Where two headings read alike, the source gives them in different places.

Assays:
[1] = tested on: blue light-induced retinal degenerations or damages in rats; experiment: Thickness of the outer nuclear layer (histology, AUC) after blue light-induced retinal degeneration; type: in vivo, Sprague-Dawley albino male rats
Method: The inventors have studied the protective effect of etifoxine in respect of the blue light-induced retinal degenerations or damages in rats. This animal model is particularly representative, in addition to light-induced retinal damage, of age-related macular degeneration (AMD) and retinitis pigmentosa (see e.g Feng et al. (2012) International Journal of Ophthalmology 5:151-157).
(§1) Induction was performed by exposure during 6 hours to a blue fluorescent light of 400 nm-540 nm wavelength in individual cages. The rats were kept in the dark for 36 hours prior to the induction and 24 hours after the induction, before returning to normal lighting conditions.
After ERG (day 14), the animals were euthanized with an overdose of pentobarbital, according to European recommendations, both eyes were enucleated, fixed with Bouin Hollande solution and then included in paraffin. Sections of 5 to 7 μm of thickness were made along the vertical meridian then stained using Masson's trichrome. The vertical meridian includes the optic nerve. […] The area under the curve (AUC) was then calculated for each retina.
A one-factor ANOVA test was applied to the average AUCs of the thickness of the outer nuclear layer. The effect of the products was determined using a Turkey's multiple comparison test; each treated group was compared to vehicle group. Differences were considered significant for p values less than 0.05.
To determine if the treatment allows to preserve the structure of photoreceptors, the thickness of the outer nuclear layer was evaluated 14 days other exposure to blue light. The area under the curve (AUC) of the thickness of the outer nuclear layer was calculated for each eye and both AUCs were averaged for each rat.

[2] = Animals behavior and body weight; type: in vivo, Sprague-Dawley albino male rats; conditions: etifoxine 12.5-50 mg/kg i.p. once a day D-7 to D0
Source text: The rats were kept under observation for 3 weeks after their arrival for acclimatization. Meanwhile the animals were observed daily for verifying the absence of a disease.
II.1. Animals Behavior and Body Weight

[3] = tested on: blue light-induced retinal degenerations or damages in rats; experiment: Scotopic electroretinogram (amplitude of wave a) after blue light-induced retinal degeneration; type: in vivo, Sprague-Dawley albino male rats
Method: This animal model is particularly representative, in addition to light-induced retinal damage, of age-related macular degeneration (AMD) and retinitis pigmentosa (see e.g Feng et al. (2012) International Journal of Ophthalmology 5:151-157).
72 Sprague-Dawley albino male rats obtained from Janvier were used for the study. When received, the rats were approximately 7 weeks old and weighed 180-200 g,
as §1
A scotopic electroretinogram (ERG) was performed by using the electrophysiological RETI-animal® (Roland Consult) system before the first administration (base) then on days 7 and 14 on both eyes of animals accustomed to the darkness. The animals were anesthetized with an intramuscular injection of a mixture of ketamine/xylazine. 15 minutes before the measurement, 1 drop of Mydriatictum® (0.5% tropicamide) was instilled to induce dilatation of the pupil. The amplitudes of wave a and wave b were measured for each eye and expressed as a percentage of the base amplitudes.
The ERG parameters are: • Gansfeld Q450C • Color: maximum white • Maximum intensity: 2.6 cd.s/m^2 (0 dB); duration: 0.24 ms; number of flashes: 1 • Filter: 50 Hz • Impedance threshold: 90 kΩ
A two-factor ANOVA test was applied to the average amplitudes of the wave a of both eyes for each measurement point. The effect of the products was determined using the Turkey's multiple comparison test; each group was compared to other groups. Differences were considered significant for p values less than 0.05.
Electroretinograms (ERG) allow to measure the amplitude of wave a, which results from the photo-activated hyperpolarization of photoreceptors. Thus, a reduction of the amplitude of wave a is an indicator of a retinal damage or degeneration associated with exposure to blue light.

[4] = tested on: light-induced degeneration of the retina in rats; conditions: intraperitoneal injection (Ranchon et al. 2001); cited from earlier work
[5] = tested on: patients suffering from neovascular (exudative) AMD; conditions: cited from earlier work

Compound: CCNC1=Nc2ccc(Cl)cc2C(C)(c2ccccc2)O1.Cl (centres unmarked) [EFX, 6-chloro-2-ethylamino-4-methyl-4-phenyl-4H-[3,1]benzoxazine hydrochloride]
- Thickness of the outer nuclear layer (AUC, mean of both eyes ± standard deviation) ([1]; EFX 12.5 mg/kg i.p. once a day D-7 to D0, 14 days after induction, p = 0.04 vs vehicle group): 170 ± 72 (p = 0.04 comparing to vehicle group) μm × mm
- Thickness of the outer nuclear layer (AUC, mean of both eyes ± standard deviation) ([1]; EFX 25 mg/kg i.p. once a day D-7 to D0, 14 days after induction, p = 0.0002 vs vehicle group): 200 ± 73 (p = 0.0002 comparing to vehicle group) μm × mm
- Thickness of the outer nuclear layer (AUC, mean of both eyes ± standard deviation) ([1]; EFX 50 mg/kg i.p. once a day D-7 to D0, 14 days after induction, p = 0.035 vs vehicle group): 172 ± 61 (p = 0.035 comparing to vehicle group) μm × mm
- Protection of the outer nuclear layer from damages or degenerations induced by blue light, compared to the vehicle ([1]; regardless of the dose (12.5, 25, 50 mg/kg), 14 days after induction): protects significantly
- Clinical signs after administration [2]: No unexpected clinical signs
- Protection of amplitude of wave a compared to the vehicle group ([3]; 12.5, 25 and 50 mg/kg, day 7 p<0.0001 all doses, day 14 p=0,016 for 12.5 mg/kg, p<0.0001 for 25 and 50 mg/kg): significant dose-dependent protection
- Amplitude of wave a (mean ± standard deviation), Day 7 ([3]; EFX 12.5 mg/kg i.p. once a day D-7 to D0, 7 days after induction): 136 ± 89 μV
- Amplitude of wave a (mean ± standard deviation), Day 14 ([3]; EFX 12.5 mg/kg i.p. once a day D-7 to D0, 14 days after induction): 134 ± 135 μV
- Amplitude of wave a (mean ± standard deviation), Day 7 ([3]; EFX 25 mg/kg i.p. once a day D-7 to D0, 7 days after induction): 210 ± 116 μV
- Amplitude of wave a (mean ± standard deviation), Day 7 ([3]; EFX 50 mg/kg i.p. once a day D-7 to D0, 7 days after induction): 260 ± 87 μV

Compound: CC(C)(C)[N+]([O-])=Cc1ccccc1 [PBN, Phenyl-N-tert-butylnitrone]
- Thickness of the outer nuclear layer (AUC, mean of both eyes ± standard deviation) ([1]; PBN 50 mg/kg i.p. at D0 around induction, 14 days after induction, p < 0.0001 vs NaCl 0.9% group): 247 ± 44 (p < 0.0001 comparing to NaCl 0.9% group) μm × mm
- Protection of the outer nuclear layer from damages or degenerations induced by blue light ([1]; PBN 50 mg/kg, positive control, in contrast to 0.9% NaCl): protects the outer nuclear layer
- Action in light-induced degeneration of the retina [4]: protective action
- Amplitude of wave a (mean ± standard deviation), Day 7 ([3]; PBN 50 mg/kg i.p. at D0, 0.5 h before, 2 h and 4 h during and just after induction, 7 days after induction): 334 ± 137 μV
- Average relative amplitude of wave a, Day 7 ([3]; PBN 50 mg/kg i.p. at D0 around induction, 7 days after induction, percentage of base amplitude): 71 ± 29%
- Amplitude of wave a (mean ± standard deviation), Day 14 ([3]; PBN 50 mg/kg i.p. at D0 around induction, 14 days after induction): 301 ± 187 μV
- Average relative amplitude of wave a, Day 14 ([3]; PBN 50 mg/kg i.p. at D0 around induction, 14 days after induction, percentage of base amplitude): 62 ± 38%
- Amplitudes of wave a compared to the NaCl 0.9% group ([3]; PBN 50 mg/kg, days 7 and 14, p<0.0001): significantly (p<0.0001) higher

Compound: ranibizumab: a Fab fragment of an anti-VEGF-A monoclonal antibody
- Visual acuity improvement ([5]; 0.3 mg monthly intravitreal injections): +8.1 letters
- Visual acuity improvement ([5]; 0.5 mg monthly intravitreal injections): +10.7 letters
